“And” between values parts separate entries of the source, which are not always exact repeats. Identical values can stand only once.
Columns and labels:
ALOMY [1] = assay: Pre-emergence herbicidal action against ALOMY; format: in vivo, Alopecurus myosuroides; details: scored visually after about 3 weeks vs untreated controls, 100% = plants have died, 0% = like control plants
How it was run: (§1)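 Visual percent activity (100% = plants dead, 0% = like control) scored about 3 weeks after pre-emergence treatment in greenhouse. Compounds as WP or EC, applied to covering soil surface with 0.5% additive, 600 L/ha water, at 1280 or 320 g/ha.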

CYPES = assay: Pre-emergence herbicidal action against CYPES; format: in vivo, Cyperus esculentus; details: scored visually after about 3 weeks vs untreated controls, 100% = plants have died, 0% = like control plants
How it was run: as §1

SETVI [2] = assay: Pre-emergence herbicidal action against SETVI; format: in vivo, Setaria viridis; details: 1280 g/ha, scored visually after about 3 weeks vs untreated controls
How it was run: as §1

AMARE [3] = assay: Pre-emergence herbicidal action against AMARE; format: in vivo, Amaranthus retroflexus; details: scored visually after about 3 weeks vs untreated controls; for Pre-emergence action at 320 g/ha against AMARE in %: 100% = plants have died, 0% = like control plants; for Pre-emergence action against AMARE in %: 1280 g/ha
How it was run: as §1

MATIN [4] = assay: Pre-emergence herbicidal action against MATIN; format: in vivo, Matricaria inodora; details: 1280 g/ha, scored visually after about 3 weeks vs untreated controls
How it was run: as §1

AVEFA [5] = assay: Pre-emergence herbicidal action against AVEFA; format: in vivo, Avena fatua; details: scored visually after about 3 weeks vs untreated controls, 100% = plants have died, 0% = like control plants
Description: (§2) Seeds of mono- and dicotyledonous weed plants are placed in plastic pots in sandy loam soil (doubly sown with one species each of mono- or dicotyledonous weed plants per pot) and covered with soil. The compounds of the invention, formulated in the form of wettable powders (WP) or as emulsion concentrates (EC), are then applied onto the surface of the covering soil as aqueous suspension or emulsion with addition of 0.5% additive at a water application rate equivalent to 600 litres per hectare. After the treatment, the pots are placed in a greenhouse and kept under good growth conditions for the trial plants. After about 3 weeks, the effect of the preparations is scored visually in comparison with untreated controls as percentages. For example, 100% activity=the plants have died, 0% activity=like control plants. [table] Tables 4.1-4.15 below show the effects of selected compounds of the general formula (I) according to Tables 1 to 3 on various harmful plants at an application rate corresponding to 1280 or 320 g/ha, which have been obtained by the aforementioned experimental method.

POLCO [6] = assay: Pre-emergence herbicidal action against POLCO; format: in vivo, Polygonum convolvulus; details: 320 g/ha, scored visually after about 3 weeks vs untreated controls
How it was run: as §1

STEME [7] = assay: Pre-emergence herbicidal action against STEME; format: in vivo, Stellaria media; details: scored visually after about 3 weeks vs untreated controls
How it was run: as §1

VIOTR [8] = assay: Pre-emergence herbicidal action against VIOTR; format: in vivo, Viola tricolor; details: 1280 g/ha, scored visually after about 3 weeks vs untreated controls
How it was run: as §1

HORMU [9] = assay: Pre-emergence herbicidal action against HORMU; format: in vivo, Hordeum murinum; details: 320 g/ha, scored visually after about 3 weeks vs untreated controls
Description: as §2

ALOMY [10] = assay: Post-emergence herbicidal action against ALOMY; format: in vivo, Alopecurus myosuroides; details: 1280 g/ha, post-emergence at one-leaf stage, rated visually after about 3 weeks vs untreated controls
How it was run: (§3)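 Applied post-emergence at 1280 or 320 g/ha to one-leaf-stage weeds grown in sandy loam, using WP or EC formulations in water (600 litres per hectare, 0.5% additive). Efficacy is scored visually relative to untreated plants about 3 weeks later, 0% meaning no effect and 100% plant death.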

AVEFA [11] = assay: Post-emergence herbicidal action against AVEFA; format: in vivo, Avena fatua; details: 1280 g/ha, post-emergence at one-leaf stage, rated visually after about 3 weeks vs untreated controls
Description: (§4) [table] Seeds of mono- and dicotyledonous weed plants are placed in plastic pots in sandy loam soil (twin sowing with one species each of mono- or dicotyledonous weed plants per pot), covered with soil and cultivated in a greenhouse under controlled growth conditions. 2 to 3 weeks after sowing, the test plants are treated at the one-leaf stage. The compounds of the invention, formulated in the form of wettable powders (WP) or as emulsion concentrates (EC), are applied to the green parts of the plants as aqueous suspension or emulsion with addition of 0.5% additive at a water application rate equivalent to 600 litres per hectare. After the test plants have been kept in the greenhouse under optimum growth conditions for about 3 weeks, the activity of the preparations is rated visually in comparison to untreated controls. For example, 100% activity=the plants have died, 0% activity=like control plants. Tables 5.1-5.16 below show the effects of selected compounds of the general formula (I) according to Tables 1 to 3 on various harmful plants at an application rate corresponding to 1280 or 320 g/ha, which have been obtained by the aforementioned experimental method.

SETVI [12] = assay: Post-emergence herbicidal action against SETVI; format: in vivo, Setaria viridis; details: 1280 g/ha, post-emergence at one-leaf stage, rated visually after about 3 weeks vs untreated controls
How it was run: as §3

AMARE [13] = assay: Post-emergence herbicidal action against AMARE; format: in vivo, Amaranthus retroflexus; details: visual rating about 3 weeks after treatment
How it was run: as §3

MATIN [14] = assay: Post-emergence herbicidal action against MATIN; format: in vivo, Matricaria inodora; details: visual rating about 3 weeks after treatment
How it was run: as §3

PHBPU [15] = assay: Post-emergence herbicidal action against PHBPU; format: in vivo, Pharbitis purpurea; details: 320 g/ha, visual rating about 3 weeks after treatment
How it was run: as §3

POLCO [16] = assay: Post-emergence herbicidal action against POLCO; format: in vivo, Polygonum convolvulus; details: 320 g/ha, visual rating about 3 weeks after treatment
How it was run: as §3

STEME [17] = assay: Post-emergence herbicidal action against STEME; format: in vivo, Stellaria media; details: visual rating about 3 weeks after treatment
How it was run: as §3

VERPE [18] = assay: Post-emergence herbicidal action against VERPE; format: in vivo, Veronica persica; details: 320 g/ha, visual rating about 3 weeks after treatment
How it was run: as §3

harmful plants = assay: Pre-emergence herbicidal action, summary of Tables 4.1-4.15; format: in vivo; details: result in words
How it was run: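 Percent herbicidal action (100% = plants dead, 0% = like controls) was assessed visually about 3 weeks after treatment. Application rates of 1280 or 320 g/ha were applied to the covering soil of freshly sown sandy-loam pots, in 600 l/ha water with 0.5% additive, before emergence.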

ECHCG [19] = assay: Pre-emergence herbicidal action against ECHCG; format: in vivo, Echinochloa crus-galli; details: scored visually after about 3 weeks vs untreated controls, 100% = plants have died, 0% = like control plants
How it was run: as §1

PHBPU [20] = assay: Pre-emergence herbicidal action against PHBPU; format: in vivo, Pharbitis purpurea; details: 1280 g/ha, scored visually after about 3 weeks vs untreated controls
Description: as §2

VERPE [21] = assay: Pre-emergence herbicidal action against VERPE; format: in vivo, Veronica persica; details: 320 g/ha, scored visually after about 3 weeks vs untreated controls
How it was run: as §1

LOLRI = assay: Post-emergence herbicidal action against LOLRI; format: in vivo, Lolium rigidum; details: 1280 g/ha, post-emergence at one-leaf stage, rated visually after about 3 weeks vs untreated controls
Description: as §4

HORMU [22] = assay: Post-emergence herbicidal action against HORMU; format: in vivo, Hordeum murinum; details: 320 g/ha, visual rating about 3 weeks after treatment
How it was run: as §3

ECHCG [23] = assay: Post-emergence herbicidal action against ECHCG; format: in vivo, Echinochloa crus-galli; details: 1280 g/ha, post-emergence at one-leaf stage, rated visually after about 3 weeks vs untreated controls
How it was run: as §3

VIOTR [24] = assay: Post-emergence herbicidal action against VIOTR; format: in vivo, Viola tricolor; details: 320 g/ha, visual rating about 3 weeks after treatment
How it was run: as §3

Row | SMILES | Pre-emergence action at 1280 g/ha against ALOMY in % (ALOMY [1]) | Pre-emergence action against SETVI in % (SETVI [2]) | Pre-emergence action at 320 g/ha against AMARE in % (AMARE [3]) | Pre-emergence action against AMARE in % (AMARE [3]) | Pre-emergence action against MATIN in % (MATIN [4]) | Pre-emergence action at 1280 g/ha against AVEFA in % (AVEFA [5]) | Pre-emergence action against POLCO in % (POLCO [6]) | Pre-emergence action against STEME in % (STEME [7]; 1280 g/ha) | Pre-emergence action against VIOTR in % (VIOTR [8]) | Post-emergence action against ALOMY in % (ALOMY [10]) | Post-emergence action against AMARE in % (AMARE [13]; 320 g/ha) | Post-emergence action against AMARE in % (AMARE [13]; 1280 g/ha) | Post-emergence action against MATIN in % (MATIN [14]; 320 g/ha) | Post-emergence action against MATIN in % (MATIN [14]; 1280 g/ha) | Post-emergence action against POLCO in % (POLCO [16]) | Post-emergence action against STEME in % (STEME [17]; 1280 g/ha) | Post-emergence action against VERPE in % (VERPE [18]) | herbicidal efficacy against harmful plants in the case of pre-emergence treatment (harmful plants) | Pre-emergence action at 1280 g/ha against ECHCG in % (ECHCG [19]) | Post-emergence action against LOLRI in % (LOLRI) | other results
1 | CCOC(=O)COc1nn(-c2ccccc2)c(-c2ccc(F)cc2)c1Br [I-056] | 90% | 100% | 80% | 100% | 90% | 80% | 80% | 100% | 80% | 90% | 80% | 80% | 80% | 80% | 80% | 90% | 90% | good herbicidal efficacy |  |  | Pre-emergence action at 1280 g/ha against CYPES in % (CYPES): 90%; Pre-emergence action against HORMU in % (HORMU [9]): 80%; Post-emergence action against AVEFA in % (AVEFA [11]): 90%; Post-emergence action against SETVI in % (SETVI [12]): 80%; Post-emergence action against PHBPU in % (PHBPU [15]): 80%
2 | O=C(O)COc1nn(-c2ccccc2)c(-c2ccc(F)cc2)c1Br [I-057] | 90% | 90% | 100% and 90% | 100% | 100% | 80% | 90% | 100% | 100% | 90% | 80% | 80% | 80% | 90% | 80% | 90% | 80% | good herbicidal efficacy | 80% | 80% | Pre-emergence action against PHBPU in % (PHBPU [20]): 90%; Pre-emergence action against STEME in % (STEME [7]; 320 g/ha): 80%; Pre-emergence action against VERPE in % (VERPE [21]): 90%; Post-emergence action against AVEFA in % (AVEFA [11]): 90%; Post-emergence action against PHBPU in % (PHBPU [15]): 90%; Post-emergence action against STEME in % (STEME [17]; 320 g/ha): 80%; Post-emergence action against HORMU in % (HORMU [22]): 80%
3 | COC(=O)C(C)Oc1nn(-c2cccc(F)c2)c(-c2cccc(F)c2)c1C#N (stereo not drawn) [I-067] | 90% | 100% | 90% | 100% | 90% | 80% |  | 90% | 100% | 100% |  |  |  | 80% |  | 90% |  | good herbicidal efficacy | 80% | 90% | Pre-emergence action at 1280 g/ha against CYPES in % (CYPES): 90%; Post-emergence action against ECHCG in % (ECHCG [23]): 90%; Post-emergence action against STEME in % (STEME [17]; 320 g/ha): 80%; Post-emergence action against VIOTR in % (VIOTR [24]): 80%; Post-emergence action against HORMU in % (HORMU [22]): 80%
4 | COC(=O)[C@@H](C)Oc1nn(-c2ccccc2)c(-c2ccc(F)cc2)c1C#N [I-130] |  | 100% | 100% | 100% |  |  | 90% | 100% |  |  | 90% | 90% | 90% | 90% | 90% | 100% | 90% |  | 100% | 90% | Pre-emergence action against STEME in % (STEME [7]; 320 g/ha): 90%; Pre-emergence action against VERPE in % (VERPE [21]): 100%; Pre-emergence action against HORMU in % (HORMU [9]): 100%; Post-emergence action against ECHCG in % (ECHCG [23]): 100%; Post-emergence action against STEME in % (STEME [17]; 320 g/ha): 90%; Post-emergence action against VIOTR in % (VIOTR [24]): 90%; Post-emergence action against HORMU in % (HORMU [22]): 80%
